Measurements published in US20250186433A1, “ACSS2 INHIBITORS AND METHODS OF USE THEREOF” (EpiVario, Inc., priority 2017, published 2025).
Each block holds one compound with its values, some of them ahead of it.

Assays:
[1] = molecular target: T1, ACSS2 (Homo sapiens, UniProt Q9NR19); assay: cell-based
Method: The cellular activity of ACSS2 was based on tracing the incorporation of carbons from ^13C-Acetate into fatty-acids.
BT474/MDA-MB-468 cells growing in DMEM+25 mM D-glucose+1 mM sodium pyruvate+10% FBS+2 mM glutamine were plated in 12-well plates at 0.4×10^6 cells/well. The cells were then incubated at CO2 incubator for 24 hrs at hypoxic conditions (1% O2) before treated with compounds. At day 2, the medium was replaced to DMEM medium containing 15 mM Glucose, 1 mM Pyruvate, 0.65 mM Glutamine, 1% Dialyzed serum, 3.5 ug/ml Biotin, 0.2 mM ^13C-Acetate and various concentrations of the compounds. The cells were incubated for 5 hours at CO2 incubator in hypoxic conditions (1% O2). At the end of the 5 hours' incubation, the cells were washed twice with cold PBS, harvested in 1 ml PBS and transfer into V-shaped HPLC glass vials and centrifuge for 10 min at 600 g at 4 C. The supernatant was removed, and the cells' pellets were stored at −80° C. until taken for saponification.
The cells pellets were resuspended with 0.5 ml of the 90% Methanol, 10% H2O, 0.3M NaOH mixture and incubated at 80° C. for 60 min. Following the incubation, 50 μl formic acid and 0.4 ml hexane were added and the mixture was vortexed for 2 minutes. The vials were left few minutes for phases separation and then 200 μl of the top hexane phase extracted to a new glass vial. The hexane was dried under nitrogen and reconstituted in 100 μl of Methanol: Acetonitrile 5:3 mixture. The solution transferred to Eppendorf tubes, spun down at 17000G for 20 min and transferred to LC-MS vials.
The analysis was performed with Thermo Q Exactive mass spectrometer with HESI probe and Dionex Ultimate 3000 UHPLC system. The separations were performed on Phenomenex Kintex 2.6u XB-C18 100A 150×2.10 mm column by injecting 5 ul of each sample. The chromatography started with a linear gradient from 85% to 100% of organic solvent (Methanol: Acetonitrile 1:1) versus 10 mM Ammonium Acetate buffer pH 4.7 for 3.5 minutes, followed by 4.5 minutes of isocratic 100% organic solvent and then 3 minutes of isocratic initial conditions, at a flow rate of 0.3 ul/min. The MS source conditions that were used: capillary temperature 325° C., sheath flow 25, aux flow 15, spray voltage 3.8 kV, aux temperature 300° C. The data collected from Negative ion mode at resolution of 70000 at Full-MS mode in 75-1000 m/z range.
The analysis of ^13C acetate incorporation into fatty acids (palmitate, myristate and stearate) performed on TraceFinder 3.2.512.0. The negative control areas and ^13C isotopic theoretical natural abundance were subtracted from the samples areas. Total ^13C incorporation for each fatty-acid (palmitate, myristate and stearate) was calculated and presented as percentage of the total amount.

[2] = molecular target: T2, ACSS2 (Mus musculus, UniProt Q9QXG4); assay: PK-PD study: inhibition of 13C incorporation into fatty-acid (palmitate) in vivo; settings: C57BL/6J mice, 50 mg/kg IP, 13C-ETOH PO at 1 h, plasma at 3 h, read-out: inhibition of 13C-Acetate incorporation into fatty-acids (palmitate)
T2 construct: from tissue; host or cells: whole animal, C57BL/6J mice; plasma palmitate read out
T2 sequence (Q9QXG4 whole entry): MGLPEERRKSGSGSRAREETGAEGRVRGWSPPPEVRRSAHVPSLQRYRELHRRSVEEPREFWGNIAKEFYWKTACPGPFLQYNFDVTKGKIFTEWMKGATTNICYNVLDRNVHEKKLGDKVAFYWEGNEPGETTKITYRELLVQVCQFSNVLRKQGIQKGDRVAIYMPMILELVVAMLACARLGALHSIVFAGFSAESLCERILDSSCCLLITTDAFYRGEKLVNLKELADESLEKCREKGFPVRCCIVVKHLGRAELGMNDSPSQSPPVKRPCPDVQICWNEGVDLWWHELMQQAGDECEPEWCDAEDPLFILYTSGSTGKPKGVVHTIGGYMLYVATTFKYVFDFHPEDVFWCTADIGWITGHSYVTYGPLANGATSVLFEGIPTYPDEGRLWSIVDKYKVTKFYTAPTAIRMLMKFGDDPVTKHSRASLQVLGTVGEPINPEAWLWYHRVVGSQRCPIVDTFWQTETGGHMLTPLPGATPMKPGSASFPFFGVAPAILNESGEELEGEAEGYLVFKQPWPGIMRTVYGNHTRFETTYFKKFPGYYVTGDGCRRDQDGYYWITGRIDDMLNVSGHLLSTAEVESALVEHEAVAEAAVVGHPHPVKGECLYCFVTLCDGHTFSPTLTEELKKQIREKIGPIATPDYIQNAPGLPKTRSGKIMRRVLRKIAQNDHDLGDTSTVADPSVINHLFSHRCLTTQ
Method: Overnight fasted Female C57BL/6J mice (3n/group) were dosed at time=0 h with the indicated compound at 50 mg/kg IP (vehicle: 20% Solutol, 80% 0.2M Phosphate buffer pH 7.0). At time 1 h, 13C-ETOH (2.25 gr/kg 13C-ETOH dissolved in saline to a total volume of 10 ml/kg) were administrated by PO. At time 3 h plasma samples were taken for Fatty-acid analysis by Mass-spectrometry. The incorporation of ^13C into palmitate was done by Mass-spectrometry after saponification of the samples and the percent incorporation of ^13C was calculated.

[3] = molecular target: T1, ACSS2; assay: Acyl-CoA synthetases selectivity panel: ACSS2; format: biochemical; design: purchased Cusabio, China; settings: human recombinant protein, substrate acetate, AMP readout by HPLC; read-out: HPLC based activity assays IC50 (UM) ACSS2
Source text: (§1) The biochemical assays for testing the selectivity of the compounds according to this invention, were done using human recombinant proteins (Cusabio, China). The readout of the assays was AMP levels, the […] of the reactions, by HPLC method. The acyl substrates (Sigma-Aldrich) of the assays were as followed: ACSS1/ACSS2—Acetate, AACS-Acetoacetyl, ACSF2—Octanoate and ACSL5—Palmitate. The protein in this panel include ACSS1, the closest homolog of ACSS2, in addition to representative short/medium/long chain acyl-CoA syntatases.

[4] = molecular target: T3, ACSL5 (Homo sapiens, UniProt Q9ULC5); assay: Acyl-CoA synthetases selectivity panel: ACSL5; format: biochemical; settings: human recombinant protein, substrate palmitate, AMP readout by HPLC; read-out: HPLC based activity assays IC50 (UM) ACSL5
T3 construct: purchased Cusabio, China
T3 sequence (Q9ULC5 1-683): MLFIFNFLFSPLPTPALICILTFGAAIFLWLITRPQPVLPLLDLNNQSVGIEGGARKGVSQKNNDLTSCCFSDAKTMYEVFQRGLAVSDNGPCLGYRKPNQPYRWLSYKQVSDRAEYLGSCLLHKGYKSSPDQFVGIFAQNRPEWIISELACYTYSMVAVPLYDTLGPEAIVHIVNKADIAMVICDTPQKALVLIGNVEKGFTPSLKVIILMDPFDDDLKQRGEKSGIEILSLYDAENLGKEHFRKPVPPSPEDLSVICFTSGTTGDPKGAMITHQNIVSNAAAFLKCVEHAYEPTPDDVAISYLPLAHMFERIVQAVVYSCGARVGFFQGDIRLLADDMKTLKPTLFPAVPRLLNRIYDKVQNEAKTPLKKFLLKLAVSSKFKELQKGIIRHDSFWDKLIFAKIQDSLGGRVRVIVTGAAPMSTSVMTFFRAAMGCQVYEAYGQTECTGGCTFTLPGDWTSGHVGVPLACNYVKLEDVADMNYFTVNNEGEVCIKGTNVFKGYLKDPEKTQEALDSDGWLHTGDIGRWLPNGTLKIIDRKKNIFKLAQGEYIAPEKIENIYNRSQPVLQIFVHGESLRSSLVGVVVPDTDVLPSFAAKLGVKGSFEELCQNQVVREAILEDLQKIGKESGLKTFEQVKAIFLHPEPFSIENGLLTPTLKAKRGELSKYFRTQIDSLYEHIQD
Source text: as §1

[5] = molecular target: T4, ACSS1 (Homo sapiens, UniProt Q9NUB1); assay: Acyl-CoA synthetases selectivity panel: ACSS1; format: biochemical; settings: human recombinant protein, substrate acetate, AMP readout by HPLC; read-out: HPLC based activity assays IC50 (UM) ACSS1
T4 construct: purchased Cusabio, China
T4 sequence (Q9NUB1 38-689): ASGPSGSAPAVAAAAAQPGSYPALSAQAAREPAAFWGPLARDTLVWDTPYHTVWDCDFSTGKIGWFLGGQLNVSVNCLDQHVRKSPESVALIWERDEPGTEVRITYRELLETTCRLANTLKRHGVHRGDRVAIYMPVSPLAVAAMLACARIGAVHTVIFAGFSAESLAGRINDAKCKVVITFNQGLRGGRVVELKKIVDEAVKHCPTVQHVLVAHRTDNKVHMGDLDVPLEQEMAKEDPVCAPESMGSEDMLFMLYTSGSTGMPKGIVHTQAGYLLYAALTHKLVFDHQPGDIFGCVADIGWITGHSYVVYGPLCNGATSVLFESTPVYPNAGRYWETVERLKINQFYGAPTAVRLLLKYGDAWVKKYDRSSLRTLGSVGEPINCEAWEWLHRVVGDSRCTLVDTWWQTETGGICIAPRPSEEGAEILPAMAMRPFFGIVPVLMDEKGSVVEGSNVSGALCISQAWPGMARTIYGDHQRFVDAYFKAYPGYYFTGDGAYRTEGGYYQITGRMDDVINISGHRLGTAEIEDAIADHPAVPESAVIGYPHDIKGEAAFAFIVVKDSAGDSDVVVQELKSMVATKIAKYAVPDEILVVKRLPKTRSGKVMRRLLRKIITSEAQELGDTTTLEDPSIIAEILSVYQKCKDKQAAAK
Source text: as §1

[6] = molecular target: T5, AACS (Homo sapiens, UniProt Q86V21); assay: Acyl-CoA synthetases selectivity panel: AACS; format: biochemical; settings: human recombinant protein, substrate acetoacetyl, AMP readout by HPLC; read-out: HPLC based activity assays IC50 (UM) AACS
T5 construct: purchased Cusabio, China
T5 sequence (Q86V21 1-672): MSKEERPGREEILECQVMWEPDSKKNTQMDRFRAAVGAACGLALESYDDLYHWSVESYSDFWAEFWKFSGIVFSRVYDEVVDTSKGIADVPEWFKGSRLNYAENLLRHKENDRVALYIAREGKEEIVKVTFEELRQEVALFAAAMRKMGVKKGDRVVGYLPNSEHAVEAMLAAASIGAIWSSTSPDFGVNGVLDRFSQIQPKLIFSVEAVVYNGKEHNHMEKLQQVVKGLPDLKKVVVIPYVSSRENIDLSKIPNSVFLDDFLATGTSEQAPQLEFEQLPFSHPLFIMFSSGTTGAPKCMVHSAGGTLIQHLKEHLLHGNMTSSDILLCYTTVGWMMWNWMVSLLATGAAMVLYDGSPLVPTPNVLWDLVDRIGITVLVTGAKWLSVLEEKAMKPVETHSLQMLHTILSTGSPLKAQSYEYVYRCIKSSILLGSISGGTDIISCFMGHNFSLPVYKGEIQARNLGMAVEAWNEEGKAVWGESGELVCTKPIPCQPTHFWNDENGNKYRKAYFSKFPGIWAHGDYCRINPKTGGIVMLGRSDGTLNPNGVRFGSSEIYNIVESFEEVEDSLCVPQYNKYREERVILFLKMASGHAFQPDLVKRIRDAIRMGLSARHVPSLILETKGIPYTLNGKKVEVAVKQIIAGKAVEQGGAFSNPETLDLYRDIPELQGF
Source text: as §1

[7] = molecular target: T6, ACSF2 (Homo sapiens, UniProt Q96CM8); assay: Acyl-CoA synthetases selectivity panel: ACSF2; format: biochemical; settings: human recombinant protein, substrate octanoate, AMP readout by HPLC; read-out: HPLC based activity assays IC50 (UM) ACSF2
T6 construct: purchased Cusabio, China
T6 sequence (Q96CM8 42-615): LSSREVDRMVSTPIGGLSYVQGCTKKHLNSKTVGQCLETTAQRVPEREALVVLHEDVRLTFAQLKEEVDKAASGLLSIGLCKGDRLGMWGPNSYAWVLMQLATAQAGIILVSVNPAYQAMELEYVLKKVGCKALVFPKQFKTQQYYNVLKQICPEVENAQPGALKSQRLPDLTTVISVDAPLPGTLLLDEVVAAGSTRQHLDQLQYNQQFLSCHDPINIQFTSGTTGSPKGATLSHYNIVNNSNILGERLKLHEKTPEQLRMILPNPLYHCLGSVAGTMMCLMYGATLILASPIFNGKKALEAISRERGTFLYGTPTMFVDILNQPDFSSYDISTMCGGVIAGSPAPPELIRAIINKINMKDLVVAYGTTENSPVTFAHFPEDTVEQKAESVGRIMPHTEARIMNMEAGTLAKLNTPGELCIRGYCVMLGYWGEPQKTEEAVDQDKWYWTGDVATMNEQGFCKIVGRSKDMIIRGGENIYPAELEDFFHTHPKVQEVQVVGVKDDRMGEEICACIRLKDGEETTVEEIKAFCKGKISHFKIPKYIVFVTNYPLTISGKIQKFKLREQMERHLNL
Source text: as §1

[8] = molecular target: T1, ACSS2; assay: biochemical
Method: The assay is based on a coupling reaction with Pyrophosphatase: ACSS2 is converting ATP+CoA+Acetate=>AMP+pyrophosphate+Acetyl-CoA (Ac-CoA). Pyrophosphatase converts pyrophosphate, a product of the ACSS2 reaction, to phosphate which can be detected by measuring the absorbance at 620 nm after incubation with the Biomol green reagent (Enzo life Science, BML-AK111).
At the end of the reaction, Biomol Green was added for 30 minutes at RT and the activity was measured by reading the absorbance at 620 nm.

[9] = molecular target: T1, ACSS2; assay: cell-based; remark: listed apart in the source
Method: Testing the inhibitory effect of compounds on the cellular activity of ACSS2 was done by tracing the incorporation of ^13C from ^13C-acetate into fatty-acids in MDA-MB-468 cells under hypoxic conditions of 1% O2. The assay was done for 5 hours in DMEM with 5.5 mM glucose, 1 mM sodium Pyruvate, 0.65 mM Glutamine, 3.5 ug/ml Biotin, 1% dialyzed serum, 0.5 mM 13 C-acetate and with different concentrations of the inhibitors. At the end of the incubation, the cells were washed with cold PBS, harvested into glass tubes and undergo saponification. The level of ^13C incorporation into Palmitate was done by LC-MS analysis and the level of inhibition was calculated with PRISM software.

[10] = system: HCT116; assay: In-vivo model that does not utilize acetate (HCT116); settings: daily oral dosing
[11] = system: MDA-MB-468 breast cancer cells xenograft; assay: In-vivo efficacy study in MDA-MB-468 breast cancer cells xenograft; settings: 100 mg/kg orally once daily; female NMRI nude mice
Method: An in-vivo efficacy study was carried out by Charles-River Laboratories at the Freiburg, Germany site.
Tumor fragments from Breast cancer cell line MDA-MB-468 passaged as subcutaneous xenograft were subcutaneously implanted into female NMRI nude mice (Crl:NMRI-Foxnlnu). The animals were randomized into groups (n=10) when tumors volume reached 50 to 250 mm3. […] Body weights and tumor volume [mm3] by caliper were measured twice weekly.

T1 sequence (Q9NR19 whole entry): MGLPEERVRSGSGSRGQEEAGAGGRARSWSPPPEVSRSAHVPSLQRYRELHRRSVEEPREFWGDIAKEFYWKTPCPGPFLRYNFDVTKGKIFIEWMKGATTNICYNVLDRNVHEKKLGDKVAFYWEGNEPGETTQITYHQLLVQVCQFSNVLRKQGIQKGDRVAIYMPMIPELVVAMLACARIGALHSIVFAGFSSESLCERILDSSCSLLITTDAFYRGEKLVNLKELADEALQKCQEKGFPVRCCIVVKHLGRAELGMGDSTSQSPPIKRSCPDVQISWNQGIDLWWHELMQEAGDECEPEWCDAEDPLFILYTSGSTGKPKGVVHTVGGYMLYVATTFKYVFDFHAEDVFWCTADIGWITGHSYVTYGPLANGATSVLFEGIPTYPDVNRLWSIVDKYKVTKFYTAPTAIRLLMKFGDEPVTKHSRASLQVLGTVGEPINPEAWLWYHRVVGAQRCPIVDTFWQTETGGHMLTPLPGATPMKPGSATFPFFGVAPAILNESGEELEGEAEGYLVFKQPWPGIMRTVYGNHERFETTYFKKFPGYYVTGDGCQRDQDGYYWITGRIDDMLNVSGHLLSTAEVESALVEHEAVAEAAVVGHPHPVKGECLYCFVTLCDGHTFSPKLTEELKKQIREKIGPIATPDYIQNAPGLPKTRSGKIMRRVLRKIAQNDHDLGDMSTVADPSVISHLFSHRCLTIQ

IC50 [1]: 0.1 to 1 µM
Compound: CC(=O)Cc1cccc(NC(=O)C2C(=O)N(c3ccccc3)N=C2C)c1 (stereo not drawn) [compound 145]

inhibition at 50 mg/kg [2]: 87%
Compound: CC1=NN(c2ccc(OC(F)F)c(-c3cnccn3)c2)C(=O)C1C(=O)Nc1cccc(C(C)(F)F)c1 (stereo not drawn) [compound 328, N-[3-(1,1-difluoroethyl)phenyl]-1-[4-(difluoromethoxy)-3-pyrazin-2-yl-phenyl]-3-methyl-5-oxo-4H-pyrazole-4-carboxamide]

IC50 [3]: 0.001 to 0.01 µM | IC50 [4]: > 100 µM | IC50 [5]: 10 to 100 µM | IC50 [6]: 149 µM | IC50 [7]: 160 µM
Compound: CC1=NN(c2ccccc2)C(=O)C1C(=O)Nc1cccc(C(C)(F)F)c1 (stereo not drawn) [compound 141]

IC50 [1]: 0.1 to 1 µM
Compound: COC(=O)c1cccc(N2N=C(C)C(C(=O)Nc3cccc(-c4ncc[nH]4)c3)C2=O)c1 (stereo not drawn) [compound 167, Methyl 3-(4-((3-(1H-imidazol-2-yl)phenyl)carbamoyl)-3-methyl-5-oxo-4,5-dihydro-1H-pyrazol-1-yl)benzoate]

IC50 [1]: > 1 µM
Compound: CC1=NN(c2ccccc2)C(=O)C1C(=O)Nc1cccc(C(=O)N(C)C)c1 (stereo not drawn) [compound 220]

Compound: CC1=NN(c2ccccc2)C(=O)C1C(=O)Nc1cccc(-c2ccco2)c1 (stereo not drawn) [compound 108]
IC50 [3]: < 0.001 µM | IC50 [4]: 76 µM | IC50 [5]: 10 to 100 µM | IC50 [6]: 84 µM | IC50 [7]: 36 µM

IC50 [8]: 0.01 to 6 nM | IC50 [9]: > 0.1 µM
Compound: CC1=NN(c2ccc(OC(F)F)cc2)C(=O)C1C(=O)N[C@H]1CC[C@@H](O)[C@@H](O)C1 (stereo partly drawn) [compound 307, 1-(4-(difluoromethoxy)phenyl)-N-((1S,3S,4R)-3,4-dihydroxycyclohexyl)-3-methyl-5-oxo-4,5-dihydro-1H-pyrazole-4-carboxamide]

Compound: CC1=NN(c2ccc(OC(F)F)cc2)C(=O)C1C(=O)Nc1cccc(C(C)(F)F)c1 (stereo not drawn) [compound 298, N-(3-(1,1-difluoroethyl)phenyl)-1-(4-(difluoromethoxy)phenyl)-3-methyl-5-oxo-4,5-dihydro-1H-pyrazole-4-carboxamide]
efficacy in a model that does not utilize acetate (HCT116) [10]: no efficacy | tumor growth in MDA-MB-468 xenograft model [11]: significant tumor growth delay

IC50 [1]: > 1 µM
Compound: CC1=NN(c2cccc(C(F)(F)F)c2)C(=O)C1C(=O)Nc1cccc(-c2cnccn2)c1 (stereo not drawn) [compound 166]

Compound: CC1=NN(c2ccc(OC(F)(F)F)cc2)C(=O)C1C(=O)Nc1cc(C(C)(F)F)cs1 (stereo not drawn) [compound 296, N-(4-(1,1-difluoroethyl)thiophen-2-yl)-3-methyl-5-oxo-1-(4-(trifluoromethoxy)phenyl)-4,5-dihydro-1H-pyrazole-4-carboxamide]
tumor growth in MDA-MB-468 xenograft model [11]: inhibits tumor growth

inhibition at 50 mg/kg [2]: 84%
Compound: COc1ccc(N2N=C(C)C(C(=O)Nc3cccc(C(C)(F)F)c3)C2=O)cn1 (stereo not drawn) [compound 242, N-(3-(1,1-difluoroethyl)phenyl)-1-(6-methoxypyridin-3-yl)-3-methyl-5-oxo-4,5-dihydro-1H-pyrazole-4-carboxamide]

IC50 [3]: < 0.001 µM | IC50 [4]: 45 µM | IC50 [5]: 10 to 100 µM | IC50 [6]: 19 µM | IC50 [7]: 28 µM
Compound: COC(=O)c1cccc(N2N=C(C)C(C(=O)Nc3cccc(-c4ccco4)c3)C2=O)c1 (stereo not drawn) [compound 269, methyl 3-(4-((3-(furan-2-yl)phenyl)carbamoyl)-3-methyl-5-oxo-4,5-dihydro-1H-pyrazol-1-yl)benzoate]

IC50 [1]: 0.1 to 1 µM
Compound: COC(=O)c1cccc(N2N=C(C)C(C(=O)Nc3cccc(-c4cnccn4)c3)C2=O)c1 (stereo not drawn) [compound 164]
